Laboratory results: ChEMBL document CHEMBL3044795, “Synthesis and biological evaluation of novel benzoquinones as potential antimicrobial agents” (2013)
Converted amounts (≈) assume the structure as drawn.

Columns and labels:
Format in all cases: functional
[1] = tested on: Candida albicans; experiment: Antifungal activity against Candida albicans DSM 70014 assessed as diamater of growth inhibition zone after 48 hr by agar cup diffusion method
[2] = tested on: Pseudomonas aeruginosa; experiment: Antibacterial activity against Pseudomonas aeruginosa ATCC 10145 assessed as growth inhibition after 24 hr by two-fold serial dilution method; conditions: ATCC 10145, 24 h
[3] = tested on: Candida albicans; experiment: Antifungal activity against Candida albicans DSM 70014 assessed as growth inhibition after 48 hr; conditions: DSM 70014, 48 h
[4] = tested on: Escherichia coli; experiment: Antibacterial activity against Escherichia coli ATCC 11775 assessed as growth inhibition after 24 hr by two-fold serial dilution method; conditions: ATCC 11775, 24 h
[5] = tested on: Pseudomonas aeruginosa; experiment: Antibacterial activity against Pseudomonas aeruginosa ATCC 10145 assessed as growth inhibition after 24 hr; conditions: ATCC 10145, 24 h
[6] = tested on: Staphylococcus aureus; experiment: Antibacterial activity against Staphylococcus aureus DSM 1104 assessed as growth inhibition after 24 hr by two fold serial dilution method; conditions: DSM 1104, 24 h
[7] = tested on: Pseudomonas aeruginosa; experiment: Antibacterial activity against Pseudomonas aeruginosa ATCC 10145 assessed as diamater of growth inhibition zone after 24 hr by agar cup diffusion method
[8] = tested on: Escherichia coli; experiment: Antibacterial activity against Escherichia coli ATCC 11775 assessed as growth inhibition after 24 hr; conditions: ATCC 11775, 24 h
[9] = tested on: Bacillus subtilis; experiment: Antibacterial activity against Bacillus subtilis ATCC 6633 assessed as growth inhibition after 24 hr by two fold serial dilution method; conditions: ATCC 6633, 24 h
[10] = tested on: Escherichia coli; experiment: Antibacterial activity against Escherichia coli ATCC 11775 assessed as diamater of growth inhibition zone after 24 hr by agar cup diffusion method
[11] = tested on: Bacillus subtilis; experiment: Antibacterial activity against Bacillus subtilis ATCC 6633 assessed as growth inhibition after 24 hr; conditions: ATCC 6633, 24 h
[12] = tested on: Candida albicans; experiment: Antifungal activity against Candida albicans DSM 70014 assessed as growth inhibition after 48 hr by two-fold serial dilution method; conditions: DSM 70014, 48 h
[13] = tested on: Staphylococcus aureus; experiment: Antibacterial activity against Staphylococcus aureus DSM 1104 assessed as growth inhibition after 24 hr; conditions: DSM 1104, 24 h
[14] = tested on: Bacillus subtilis; experiment: Antibacterial activity against Bacillus subtilis ATCC 6633 assessed as diamater of growth inhibition zone after 24 hr by agar cup diffusion method
[15] = tested on: Staphylococcus aureus; experiment: Antibacterial activity against Staphylococcus aureus DSM 1104 assessed as diamater of growth inhibition zone after 24 hr by agar cup diffusion method

Compound	MIC [2]	MIC [4]	MIC [6]	MIC [9]	MIC [12]	diameter of the inhibition zone (DIZ) [1]	MFC [3]	MBC [5]	diameter of the inhibition zone (DIZ) [7]	MBC [8]	diameter of the inhibition zone (DIZ) [10]	MBC [11]	MBC [13]	diameter of the inhibition zone (DIZ) [14]	diameter of the inhibition zone (DIZ) [15]
COc1ccc(/C=N/N=c2\scc(-c3cc(O)ccc3O)n2-c2ccc(Cl)cc2)cc1O	100 µg/mL (≈ 214 µM)	100 µg/mL (≈ 214 µM)	25 µg/mL (≈ 53.4 µM)	50 µg/mL (≈ 107 µM)	25 µg/mL (≈ 53.4 µM)	12 mm	50 µg/mL (≈ 107 µM)	100 µg/mL (≈ 214 µM)	14 mm	100 µg/mL (≈ 214 µM)	13 mm	100 µg/mL (≈ 214 µM)	50 µg/mL (≈ 107 µM)	14 mm	14 mm
COc1cc(/C=N/N=c2\scc(C3=CC(=O)C=CC3=O)n2-c2ccccc2)ccc1O	100 µg/mL (≈ 232 µM)	100 µg/mL (≈ 232 µM)	25 µg/mL (≈ 57.9 µM)	50 µg/mL (≈ 116 µM)	25 µg/mL (≈ 57.9 µM)	12 mm	50 µg/mL (≈ 116 µM)	100 µg/mL (≈ 232 µM)	14 mm	100 µg/mL (≈ 232 µM)	15 mm	100 µg/mL (≈ 232 µM)	50 µg/mL (≈ 116 µM)	15 mm	15 mm
COc1ccc(/C=N/N=c2\scc(C3=CC(=O)C=CC3=O)n2-c2ccccc2)cc1O	100 µg/mL (≈ 232 µM)	50 µg/mL (≈ 116 µM)	50 µg/mL (≈ 116 µM)	100 µg/mL (≈ 232 µM)	100 µg/mL (≈ 232 µM)	14 mm	100 µg/mL (≈ 232 µM)	100 µg/mL (≈ 232 µM)	16 mm	50 µg/mL (≈ 116 µM)	14 mm	100 µg/mL (≈ 232 µM)	50 µg/mL (≈ 116 µM)	15 mm	14 mm
COc1cc(/C=N/N=c2\scc(C3=CC(=O)C=CC3=O)n2-c2ccc(C)cc2)ccc1O	100 µg/mL (≈ 224 µM)	50 µg/mL (≈ 112 µM)	25 µg/mL (≈ 56.1 µM)	100 µg/mL (≈ 224 µM)	50 µg/mL (≈ 112 µM)	15 mm	50 µg/mL (≈ 112 µM)	100 µg/mL (≈ 224 µM)	15 mm	50 µg/mL (≈ 112 µM)	15 mm	100 µg/mL (≈ 224 µM)	50 µg/mL (≈ 112 µM)	15 mm	14 mm
COc1ccc(/C=N/N=c2\scc(C3=CC(=O)C=CC3=O)n2-c2ccc(Cl)cc2)cc1	100 µg/mL (≈ 222 µM)	100 µg/mL (≈ 222 µM)	100 µg/mL (≈ 222 µM)	100 µg/mL (≈ 222 µM)	100 µg/mL (≈ 222 µM)	14 mm	100 µg/mL (≈ 222 µM)	100 µg/mL (≈ 222 µM)	16 mm	100 µg/mL (≈ 222 µM)	16 mm	100 µg/mL (≈ 222 µM)	100 µg/mL (≈ 222 µM)	15 mm	14 mm

Now those with a lower MIC [2], led by results:

MIC [2]	MIC [4]	MIC [6]	MIC [9]	MIC [12]	Compound	diameter of the inhibition zone (DIZ) [1]	MFC [3]	MBC [5]	diameter of the inhibition zone (DIZ) [7]	MBC [8]	diameter of the inhibition zone (DIZ) [10]	MBC [11]	MBC [13]	diameter of the inhibition zone (DIZ) [14]	diameter of the inhibition zone (DIZ) [15]
50 µg/mL (≈ 120 µM)	25 µg/mL (≈ 60.2 µM)	50 µg/mL (≈ 120 µM)	50 µg/mL (≈ 120 µM)	50 µg/mL (≈ 120 µM)	COc1ccc(/C=N/N=c2\scc(C3=CC(=O)C=CC3=O)n2-c2ccccc2)cc1	15 mm	50 µg/mL (≈ 120 µM)	50 µg/mL (≈ 120 µM)	15 mm	50 µg/mL (≈ 120 µM)	16 mm	50 µg/mL (≈ 120 µM)	50 µg/mL (≈ 120 µM)	15 mm	15 mm
50 µg/mL (≈ 112 µM)	50 µg/mL (≈ 112 µM)	50 µg/mL (≈ 112 µM)	50 µg/mL (≈ 112 µM)	50 µg/mL (≈ 112 µM)	COc1ccc(OC)c(/C=N/N=c2\scc(C3=CC(=O)C=CC3=O)n2-c2ccccc2)c1	15 mm	50 µg/mL (≈ 112 µM)	50 µg/mL (≈ 112 µM)	14 mm	50 µg/mL (≈ 112 µM)	14 mm	50 µg/mL (≈ 112 µM)	50 µg/mL (≈ 112 µM)	15 mm	14 mm
50 µg/mL (≈ 112 µM)	50 µg/mL (≈ 112 µM)	100 µg/mL (≈ 224 µM)	50 µg/mL (≈ 112 µM)	50 µg/mL (≈ 112 µM)	COc1ccc(/C=N/N=c2\scc(C3=CC(=O)C=CC3=O)n2-c2ccc(C)cc2)cc1O	15 mm	100 µg/mL (≈ 224 µM)	50 µg/mL (≈ 112 µM)	14 mm	50 µg/mL (≈ 112 µM)	14 mm	50 µg/mL (≈ 112 µM)	100 µg/mL (≈ 224 µM)	14 mm	15 mm
25 µg/mL (≈ 54.4 µM)	25 µg/mL (≈ 54.4 µM)	12.5 µg/mL (≈ 27.2 µM)	12.5 µg/mL (≈ 27.2 µM)	25 µg/mL (≈ 54.4 µM)	COc1ccc(OC)c(/C=N/N=c2\scc(C3=CC(=O)C=CC3=O)n2-c2ccc(C)cc2)c1	13 mm	50 µg/mL (≈ 109 µM)	50 µg/mL (≈ 109 µM)	14 mm	50 µg/mL (≈ 109 µM)	14 mm	25 µg/mL (≈ 54.4 µM)	25 µg/mL (≈ 54.4 µM)	15 mm	16 mm
